Values quoted from earlier work in US8349821B2, “Stanol composition and the use thereof” (Raisio Nutrition Ltd., priority 1996, dated 2013).

Tests used:
healthy humans = settings: in vivo
male subjects = settings: for Absorption rate, on average: intestinal perfusion technique, ten male subjects

## CC[C@H](CC[C@@H](C)[C@H]1CC[C@H]2[C@@H]3CC[C@H]4C[C@@H](O)CC[C@]4(C)[C@H]3CC[C@]12C)C(C)C [sitostanol]
Healthy humans
  Absorbability (in words): practically unabsorbable

## CC(C)[C@H](C)CC[C@@H](C)[C@H]1CC[C@H]2[C@@H]3CC=C4C[C@@H](O)CC[C@]4(C)[C@H]3CC[C@]12C [campesterol]
Male subjects; in vivo
  Dietary campesterol absorbed: up to 10%
Male subjects
  Absorption rate, on average: 9.6%

## CC[C@H](/C=C/[C@@H](C)[C@H]1CC[C@H]2[C@@H]3CC=C4C[C@@H](O)CC[C@]4(C)[C@H]3CC[C@]12C)C(C)C [stigmasterol]
Male subjects
  Absorption rate, on average: 4.8%

## CC[C@H](CC[C@@H](C)[C@H]1CC[C@H]2[C@@H]3CC=C4C[C@@H](O)CC[C@]4(C)[C@H]3CC[C@]12C)C(C)C [sitosterol]
Male subjects
  Absorption rate, on average: 4.2%
Healthy humans
  Amount that can be absorbed: < 5%
